How the values were obtained:
[1] = molecular target: T1, SMARCA2-HiBiT HeLa cells (protein which is expressed from the SMARCA2 gene) (Homo sapiens, UniProt P51531); assay: SMARCA2 degradation assay (HiBiT-fusion HeLa cell line, 24 h, luminescence); format: cell-based
T1 construct: protein which is expressed from the SMARCA2 and SMARCA4 genes; host or cells: HeLa (SMARCA2-HiBiT engineered line)
Procedure: (§1) SMARCA2 and SMARCA4 Degradation Assay
(§2) Degradation of protein which is expressed from the SMARCA2 and SMARCA4 genes was monitored using engineered HiBiT-fusion HeLa cell lines from Promega. In brief, 384-well white opaque plates (Greiner) were seeded with SMARCA2-HiBiT or SMARCA4-HiBiT HeLa cells at 8,000 cells/well and incubated overnight at 37° C. to allow cell attachment. After overnight incubation, test compounds were added in a 10-point dilution series (typically 10 μM to 300 pM) using a TECAN D300e Digital Dispenser, and plates were subsequently incubated for 24 hours at 37° C. 24-hours post-treatment, protein levels were quantified with the addition of HiBiT lytic buffer, LgBiT protein, and HiBiT substrate, according to manufacturer's specifications. Plates were incubated on an orbital plate shaker for 10 minutes at room temperature. Resulting luminescent values were read out using a ClarioStar plate reader and used to construct dose-response curves and calculation of degradation DC50s (GraphPad Prism).
(§3) Activity of the tested compounds is provided in Table 4 below as follows: A=DC50<0.050 μM; B=0.05 μM<DC50<0.50 μM; C=<0.5 μM<DC50<5.0 μM; D=DC50>5.0 μM. For SMARCA2 and SMARCA4 degradation activity @1 μM, +++=>70%; ++=30-70%; +=<30%.

[2] = molecular target: T2, SMARCA4-HiBiT HeLa cells (protein which is expressed from the SMARCA4 gene) (Homo sapiens, UniProt P51532); assay: SMARCA4 degradation assay (HiBiT-fusion HeLa cell line, 24 h, luminescence); format: cell-based
T2 construct: protein which is expressed from the SMARCA2 and SMARCA4 genes; host or cells: HeLa (SMARCA4-HiBiT engineered line)
Procedure: as §1, §2, §3

T2 sequence (P51532 whole entry, the tested form may be a part): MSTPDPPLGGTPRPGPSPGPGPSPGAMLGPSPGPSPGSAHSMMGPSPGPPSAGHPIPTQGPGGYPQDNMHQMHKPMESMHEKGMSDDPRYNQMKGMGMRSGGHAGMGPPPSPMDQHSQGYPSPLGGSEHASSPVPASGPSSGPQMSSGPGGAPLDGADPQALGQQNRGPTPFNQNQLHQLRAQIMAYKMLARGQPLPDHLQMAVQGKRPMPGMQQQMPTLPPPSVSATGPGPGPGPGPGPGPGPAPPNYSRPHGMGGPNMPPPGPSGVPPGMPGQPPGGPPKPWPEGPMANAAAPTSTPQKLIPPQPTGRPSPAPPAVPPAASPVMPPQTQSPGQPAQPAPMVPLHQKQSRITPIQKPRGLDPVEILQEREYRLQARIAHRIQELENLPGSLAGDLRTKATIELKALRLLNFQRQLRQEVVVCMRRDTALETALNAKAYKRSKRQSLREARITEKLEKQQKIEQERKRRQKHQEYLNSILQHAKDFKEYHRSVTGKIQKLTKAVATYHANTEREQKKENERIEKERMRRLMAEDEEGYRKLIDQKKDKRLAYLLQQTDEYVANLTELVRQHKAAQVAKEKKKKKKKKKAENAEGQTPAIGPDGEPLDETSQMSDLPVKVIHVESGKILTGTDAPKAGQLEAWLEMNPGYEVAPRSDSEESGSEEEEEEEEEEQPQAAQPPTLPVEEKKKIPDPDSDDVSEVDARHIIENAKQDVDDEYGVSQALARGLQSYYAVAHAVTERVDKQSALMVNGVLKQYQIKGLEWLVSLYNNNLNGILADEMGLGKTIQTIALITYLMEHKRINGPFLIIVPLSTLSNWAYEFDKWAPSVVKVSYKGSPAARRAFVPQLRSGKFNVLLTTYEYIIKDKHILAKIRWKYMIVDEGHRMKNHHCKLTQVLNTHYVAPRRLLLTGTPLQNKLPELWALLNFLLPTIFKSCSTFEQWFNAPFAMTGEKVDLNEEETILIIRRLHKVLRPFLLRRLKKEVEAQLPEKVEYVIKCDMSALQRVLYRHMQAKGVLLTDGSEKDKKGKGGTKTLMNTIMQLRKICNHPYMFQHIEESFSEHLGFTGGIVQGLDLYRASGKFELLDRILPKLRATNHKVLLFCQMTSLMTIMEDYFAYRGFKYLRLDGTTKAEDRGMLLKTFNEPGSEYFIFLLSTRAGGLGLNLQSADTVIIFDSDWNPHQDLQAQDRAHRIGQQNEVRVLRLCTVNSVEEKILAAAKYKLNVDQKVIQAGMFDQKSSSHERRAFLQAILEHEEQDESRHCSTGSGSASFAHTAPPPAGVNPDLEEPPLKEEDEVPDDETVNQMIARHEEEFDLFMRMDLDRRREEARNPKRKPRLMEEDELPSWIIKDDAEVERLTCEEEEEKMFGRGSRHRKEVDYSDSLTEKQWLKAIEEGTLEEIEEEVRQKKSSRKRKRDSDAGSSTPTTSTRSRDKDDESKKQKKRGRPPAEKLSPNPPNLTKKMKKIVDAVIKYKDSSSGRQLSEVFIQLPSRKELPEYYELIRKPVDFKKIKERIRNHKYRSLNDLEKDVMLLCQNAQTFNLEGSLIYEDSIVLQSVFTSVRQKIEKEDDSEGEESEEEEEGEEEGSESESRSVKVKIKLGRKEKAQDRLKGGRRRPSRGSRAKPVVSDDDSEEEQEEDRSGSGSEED
T1 sequence (P51531 whole entry, the tested form may be a part): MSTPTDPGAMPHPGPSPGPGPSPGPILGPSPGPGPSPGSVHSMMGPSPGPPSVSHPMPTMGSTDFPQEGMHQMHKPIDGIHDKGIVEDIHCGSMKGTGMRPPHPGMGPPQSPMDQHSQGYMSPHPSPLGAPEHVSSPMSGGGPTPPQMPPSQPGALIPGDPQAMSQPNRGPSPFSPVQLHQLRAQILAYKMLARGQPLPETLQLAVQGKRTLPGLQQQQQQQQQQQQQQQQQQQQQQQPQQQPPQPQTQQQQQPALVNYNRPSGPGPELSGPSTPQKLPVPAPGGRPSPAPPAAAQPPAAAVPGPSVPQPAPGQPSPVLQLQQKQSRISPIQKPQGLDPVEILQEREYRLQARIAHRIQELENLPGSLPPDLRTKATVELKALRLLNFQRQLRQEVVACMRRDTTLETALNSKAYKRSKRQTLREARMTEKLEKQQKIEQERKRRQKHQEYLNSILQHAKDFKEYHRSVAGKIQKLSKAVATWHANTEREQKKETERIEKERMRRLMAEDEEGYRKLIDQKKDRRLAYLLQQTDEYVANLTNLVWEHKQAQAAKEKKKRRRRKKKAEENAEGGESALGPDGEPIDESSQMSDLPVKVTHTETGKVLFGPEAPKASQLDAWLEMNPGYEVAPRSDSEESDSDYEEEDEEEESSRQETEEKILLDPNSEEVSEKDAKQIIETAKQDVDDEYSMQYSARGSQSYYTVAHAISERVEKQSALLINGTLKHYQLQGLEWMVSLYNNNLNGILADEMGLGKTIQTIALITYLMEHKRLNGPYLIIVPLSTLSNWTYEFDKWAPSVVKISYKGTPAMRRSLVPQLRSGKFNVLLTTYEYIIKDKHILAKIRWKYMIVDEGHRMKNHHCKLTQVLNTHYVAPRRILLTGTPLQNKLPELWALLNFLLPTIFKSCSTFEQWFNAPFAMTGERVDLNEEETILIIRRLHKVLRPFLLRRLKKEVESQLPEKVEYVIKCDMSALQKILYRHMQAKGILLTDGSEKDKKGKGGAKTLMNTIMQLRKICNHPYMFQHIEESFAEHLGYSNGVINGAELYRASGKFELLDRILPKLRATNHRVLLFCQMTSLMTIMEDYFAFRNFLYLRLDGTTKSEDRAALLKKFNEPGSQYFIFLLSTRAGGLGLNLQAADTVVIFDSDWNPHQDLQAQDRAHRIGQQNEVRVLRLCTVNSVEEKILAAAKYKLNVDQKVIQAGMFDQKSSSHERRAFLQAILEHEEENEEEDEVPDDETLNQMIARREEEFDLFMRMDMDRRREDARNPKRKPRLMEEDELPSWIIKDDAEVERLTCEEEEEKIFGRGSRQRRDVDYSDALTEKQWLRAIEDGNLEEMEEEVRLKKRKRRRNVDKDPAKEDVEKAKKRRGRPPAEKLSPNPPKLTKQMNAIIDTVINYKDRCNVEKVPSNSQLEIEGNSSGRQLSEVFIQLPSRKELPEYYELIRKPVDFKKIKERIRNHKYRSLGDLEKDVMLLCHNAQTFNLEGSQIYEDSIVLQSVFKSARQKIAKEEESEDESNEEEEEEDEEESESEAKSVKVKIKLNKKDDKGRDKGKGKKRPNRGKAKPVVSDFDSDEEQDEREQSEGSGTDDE

Row | SMILES | DC50 [1] [nM] | SMARCA2 % Degradation @ 1 μM [1] | DC50 [2] [nM] | inhibition at 1 µM [2] [%]
1 | Nc1nnc(-c2ccccc2O)cc1N1CCCC2(CCN(c3ccnc(C#CCNC(=O)c4cc5ncccn5n4)n3)CC2)C1 [Compound P-33, N-(3-(4-(2-(3-amino-6-(2-hydroxyphenyl)pyridazin-4-yl)-2,9-diazaspiro[5.5]undecan-9-yl)pyrimidin-2-yl)prop-2-yn-1-yl)pyrazolo[1,5-a]pyrimidine-2-carboxamide] | 50 to 500 | ++ (++=30-70%) | 50 to 500 | 30 to 70
2 | Nc1nnc(-c2ccccc2O)cc1N1CCC2(CCCN(c3ccnc(C#CCNC(=O)c4cc5ncccn5n4)n3)C2)CC1 [Compound P-35, N-(3-(4-(9-(3-amino-6-(2-hydroxyphenyl)pyridazin-4-yl)-2,9-diazaspiro[5.5]undecan-2-yl)pyrimidin-2-yl)prop-2-yn-1-yl)pyrazolo[1,5-a]pyrimidine-2-carboxamide] | 50 to 500 | ++ (++=30-70%) | 50 to 500 | > 70
3 | Nc1nnc(-c2ccccc2O)cc1N1CCC2C1CCCN2c1ccnc(C#CCNC(=O)c2cc3ncccn3n2)n1 (centres unmarked) [Compound P-38, N-(3-(4-(1-(3-amino-6-(2-hydroxyphenyl)pyridazin-4-yl)octahydro-4H-pyrrolo[3,2-b]pyridin-4-yl)pyrimidin-2-yl)prop-2-yn-1-yl)pyrazolo[1,5-a]pyrimidine-2-carboxamide] | 500 to 5000 | + (+=<30%) | 500 to 5000 | < 30

The remaining lines, values ahead:

Row | DC50 [1] [nM] | SMARCA2 % Degradation @ 1 μM [1] | DC50 [2] [nM] | inhibition at 1 µM [2] [%] | SMILES
4 | 50 to 500 | ++ (++=30-70%) | 50 to 500 | 30 to 70 | Nc1nnc(-c2ccccc2O)cc1N1CCC2(CCN(c3ccnc(C#CCNC(=O)c4cc5ncccn5n4)n3)CC2)C1 [Compound P-34, N-(3-(4-(2-(3-amino-6-(2-hydroxyphenyl)pyridazin-4-yl)-2,8-diazaspiro[4.5]decan-8-yl)pyrimidin-2-yl)prop-2-yn-1-yl)pyrazolo[1,5-a]pyrimidine-2-carboxamide]
5 | 50 to 500 | +++ (+++=>70%) | 50 to 500 | > 70 | Nc1nnc(-c2ccccc2O)cc1N1CC2CCN(c3ccnc(C#CCNC(=O)c4cc5ncccn5n4)n3)C2C1 (centres unmarked) [Compound P-36, N-(3-(4-(5-(3-amino-6-(2-hydroxyphenyl)pyridazin-4-yl)hexahydropyrrolo[3,4-b]pyrrol-1(2H)-yl)pyrimidin-2-yl)prop-2-yn-1-yl)pyrazolo[1,5-a]pyrimidine-2-carboxamide]
6 | 50 to 500 | ++ (++=30-70%) | 50 to 500 | 30 to 70 | Nc1nnc(-c2ccccc2O)cc1N1CCC2CCN(c3ccnc(C#CCNC(=O)c4cc5ncccn5n4)n3)C2C1 (centres unmarked) [Compound P-37, N-(3-(4-(6-(3-amino-6-(2-hydroxyphenyl)pyridazin-4-yl)octahydro-1H-pyrrolo[2,3-c]pyridin-1-yl)pyrimidin-2-y1)prop-2-yn-1-yl)pyrazolo[1,5-a]pyrimidine-2-carboxamide]
7 | 500 to 5000 | + (+=<30%) | 500 to 5000 | < 30 | CC1CN(c2ccnc(C#CCN)n2)CCN(c2cc(-c3ccccc3O)nnc2N)C1 (centres unmarked) [Compound P-39, 2-(6-amino-5-(4-(2-(3-aminoprop-1-yn-1-yl)pyrimidin-4-yl)-6-methyl-1,4-diazepan-1-yl)pyridazin-3-yl)phenol]
8 | 500 to 5000 | + (+=<30%) | 500 to 5000 | < 30 | CC1CN(c2ccnc(C#CCN)n2)CCCN1c1cc(-c2ccccc2O)nnc1N (centres unmarked) [Compound P-40, 2-(6-amino-5-(4-(2-(3-aminoprop-1-yn-1-yl)pyrimidin-4-yl)-2-methyl-1,4-diazepan-1-yl)pyridazin-3-yl)phenol]

— patent US20260265238A1, “COMPOUNDS AND PHARMACEUTICAL COMPOSITIONS THAT DEGRADE SWI/SNF-RELATED MATRIX-ASSOCIATED ACTIN-DEPENDENT REGULATOR OF CHROMATIN SUBFAMILY A” (Plexium, Inc., priority 2023, published 2026)
